Our source for the MIC and inhibition values is ChEMBL document CHEMBL3751688, “Synthesis, in vitro antimycobacterial evaluation and docking studies of some new 5,6,7,8-tetrahydropyrido[4',3':4,5]thieno[2,3-d]pyrimidin-4(3H)-one schiff bases” (Bioorg Med Chem Lett, 2016).

Values after ≈ are worked out from the molar mass of the structure shown.

Holding throughout (format): functional
Test [1] relates to Klebsiella pneumoniae. Briefly: Antibacterial activity against Klebsiella pneumoniae MTCC 109 after 24 hrs by broth microdilution technique. Particulars: MTCC 109, 24 h. (Broth dilution looks for growth in wells or tubes with falling amounts of substance.)
Test [2] concerns Escherichia coli. Briefly: Antibacterial activity against Escherichia coli MTCC 443 after 24 hrs by broth microdilution technique. Particulars: MTCC 443, 24 h.
For test [3], the system named is Staphylococcus aureus. Briefly: Antibacterial activity against Staphylococcus aureus MTCC 96 after 24 hrs by broth microdilution technique. Conditions: MTCC 96, 24 h.
The test system of test [4] is Bacillus subtilis. The experiment in a line: Antibacterial activity against Bacillus subtilis MTCC 441 after 24 hrs by broth microdilution technique. Conditions: MTCC 441, 24 h.
Test [5] concerns Mycobacterium tuberculosis. Briefly: Antimycobacterial activity against Mycobacterium tuberculosis H37Rv after 14 days by broth microdilution method. Particulars: 336 h.
For test [6], the system named is Mycobacterium tuberculosis. Briefly: Antimycobacterial activity against Mycobacterium tuberculosis H37Rv after 21 days by broth microdilution method. Particulars: 504 h.
Test [7] relates to Mycobacterium tuberculosis. Briefly: Antimycobacterial activity against Mycobacterium tuberculosis H37Rv at 470 uM after 3 days by luciferase reporter phage assay. Particulars: 72 h. A general note: Reporter assays use an easily measured gene product as a stand-in for the process of interest.
The test system of test [8] is Mycobacterium tuberculosis. The experiment in a line: Antimycobacterial activity against Mycobacterium tuberculosis H37Rv at 235 uM after 3 days by luciferase reporter phage assay. Particulars: 72 h.
Test [9] has as its system Mycobacterium tuberculosis. Briefly: Antimycobacterial activity against Mycobacterium tuberculosis H37Rv at 117 uM after 3 days by luciferase reporter phage assay. Particulars: 72 h.
In test [10] the test system is Mycobacterium tuberculosis. Briefly: Antimycobacterial activity against Mycobacterium tuberculosis H37Rv at 232 uM after 3 days by luciferase reporter phage assay. Conditions: 72 h.
Test [11] concerns Mycobacterium tuberculosis. Briefly: Antimycobacterial activity against Mycobacterium tuberculosis H37Rv at 465 uM after 3 days by luciferase reporter phage assay. Conditions: 72 h.
In test [12] the test system is Mycobacterium tuberculosis. The experiment in a line: Antimycobacterial activity against Mycobacterium tuberculosis H37Rv at 116 uM after 3 days by luciferase reporter phage assay. Conditions: 72 h.
The subject of test [13] is Mycobacterium tuberculosis. Briefly: Antimycobacterial activity against Mycobacterium tuberculosis H37Rv at 113 uM after 3 days by luciferase reporter phage assay. Conditions: 72 h.
Test [14] deals with Mycobacterium tuberculosis. The experiment in a line: Antimycobacterial activity against Mycobacterium tuberculosis H37Rv at 224 uM after 3 days by luciferase reporter phage assay. Particulars: 72 h.
For test [15], the system named is Mycobacterium tuberculosis. Briefly: Antimycobacterial activity against Mycobacterium tuberculosis H37Rv at 455 uM after 3 days by luciferase reporter phage assay. Conditions: 72 h.

For `O=c1c2c3c(sc2ncn1/N=C/c1ccc(F)cc1)CN(Cc1ccccc1)CC3`, the MIC (commonly the least concentration at which growth counts as inhibited) in test [1] came out at 147 µM (≈ 61.5 µg/mL); in [2], 73 µM (≈ 30.6 µg/mL); in [3] it was 73 µM (≈ 30.6 µg/mL); in test [4], 73 µM (≈ 30.6 µg/mL).

Consider `CN[C@@H]1[C@H](O[C@H]2[C@H](O[C@H]3[C@H](O)[C@@H](O)[C@H](N=C(N)N)[C@@H](O)[C@@H]3N=C(N)N)O[C@@H](C)[C@]2(O)C=O)O[C@@H](CO)[C@H](O)[C@H]1O` [STREPTOMYCIN], for which the MIC is below 1 µM in [1]; 2 µM (≈ 1.16 µg/mL) in test [5]; 2 µM (≈ 1.16 µg/mL) in test [6]; below 1 µM in test [2]; below 1 µM in [3]; below 1 µM in [4].

`Cc1nc2sc3c(c2c(=O)n1/N=C/c1ccc(O)cc1)CCN(Cc1ccccc1)C3`: the MIC in [1], in [2], in [3] and in test [4] was 144 µM (≈ 62 µg/mL) in each case.

With `N#Cc1ccc(/C=N/n2cnc3sc4c(c3c2=O)CCN(Cc2ccccc2)C4)cc1`, the minimum inhibitory concentration (MIC) in test [1] was determined as 72 µM (≈ 30.6 µg/mL); in test [5] it was 9 µM (≈ 3.83 µg/mL); in test [6] it was 9 µM (≈ 3.83 µg/mL); in test [2], 16 µM (≈ 6.81 µg/mL); in test [3] it was 35 µM (≈ 14.9 µg/mL); in [4], 35 µM (≈ 14.9 µg/mL). The inhibition (in general, the drop in the measured response relative to a control, in per cent) at 470 µM in [7] was 69.9%. The same compound came in with an inhibition at 235 µM in [8] of 9.7%. In test [9], 117 µM produced 0% inhibition.

Regarding `COc1ccc(/C=N/n2c(C)nc3sc4c(c3c2=O)CCN(Cc2ccccc2)C4)cc1`, the MIC in test [1] is 69 µM (≈ 30.7 µg/mL); in [2] it was 33 µM (≈ 14.7 µg/mL); in test [3], 69 µM (≈ 30.7 µg/mL); in [4], 33 µM (≈ 14.7 µg/mL).

As to `COc1ccc(/C=N/n2cnc3sc4c(c3c2=O)CCN(Cc2ccccc2)C4)cc1`, in [10], the inhibition at 232 µM worked out at 15%. Besides, at 465 µM the inhibition in test [11] was 16.9%. Also, the inhibition at 116 µM in test [12] came out at 0%. Further, the MIC in test [1] worked out at 72 µM (≈ 31 µg/mL); in [5] it was 20 µM (≈ 8.61 µg/mL); in [6] it was 20 µM (≈ 8.61 µg/mL); in [2], 16 µM (≈ 6.89 µg/mL); in test [3] it was 34 µM (≈ 14.6 µg/mL); in test [4], 34 µM (≈ 14.6 µg/mL).

Consider `O=c1c2c3c(sc2ncn1/N=C/c1ccc(O)cc1)CN(Cc1ccccc1)CC3`, for which the MIC in [1], in test [2], in [3] and in test [4] was 149 µM (≈ 62.1 µg/mL) throughout.

Take `O=c1c2c3c(sc2ncn1/N=C/c1ccc(Cl)cc1)CN(Cc1ccccc1)CC3`: the MIC in test [1] came out at 71 µM (≈ 30.9 µg/mL); in [5] it was 20 µM (≈ 8.7 µg/mL); in test [6], 20 µM (≈ 8.7 µg/mL); in test [2], 16 µM (≈ 6.96 µg/mL); in test [3], 34 µM (≈ 14.8 µg/mL); in test [4] it was 34 µM (≈ 14.8 µg/mL).

As for `Cc1nc2sc3c(c2c(=O)n1/N=C/c1ccc(C#N)cc1)CCN(Cc1ccccc1)C3`, the MIC in test [1] was 70 µM (≈ 30.8 µg/mL); in [5], 20 µM (≈ 8.79 µg/mL); in test [6] it was 20 µM (≈ 8.79 µg/mL); in test [2], 15 µM (≈ 6.59 µg/mL); in test [3] it was 34 µM (≈ 14.9 µg/mL); in [4], 34 µM (≈ 14.9 µg/mL). Moreover, in [13], the inhibition at 113 µM worked out at 0%. In addition, in test [14], 224 µM produced 6.5% inhibition. Also, the inhibition at 455 µM in [15] came to 9.8%.

For the compound `O=c1c2c3c(sc2ncn1/N=C/c1ccco1)CN(Cc1ccccc1)CC3`, the MIC in test [1], in [2], in test [3] and in [4] was 158 µM (≈ 61.7 µg/mL) throughout.

As for `O=c1c2c3c(sc2ncn1/N=C/c1ccccc1[N+](=O)[O-])CN(Cc1ccccc1)CC3`, the MIC in [1], in test [2], in [3] and in test [4] was 139 µM (≈ 61.9 µg/mL) each time.

In the case of `O=c1c2c3c(sc2ncn1/N=C/c1ccccc1)CN(Cc1ccccc1)CC3`, the MIC in [1] turned out to be 155 µM (≈ 62.1 µg/mL); in [2], 77 µM (≈ 30.8 µg/mL); in test [3], 77 µM (≈ 30.8 µg/mL); in test [4] it was 77 µM (≈ 30.8 µg/mL).

Take `Cc1nc2sc3c(c2c(=O)n1/N=C/c1ccc(Cl)cc1Cl)CCN(Cc1ccccc1)C3`: the MIC in test [1] stood at 64 µM (≈ 30.9 µg/mL); in test [2], 64 µM (≈ 30.9 µg/mL); in [3], 64 µM (≈ 30.9 µg/mL); in [4] it was 15 µM (≈ 7.25 µg/mL).

Regarding `Cc1nc2sc3c(c2c(=O)n1/N=C/c1ccccc1)CCN(Cc1ccccc1)C3`, the MIC in [1] stood at 149 µM (≈ 61.8 µg/mL); in [2], 74 µM (≈ 30.7 µg/mL); in [3], 74 µM (≈ 30.7 µg/mL); in test [4], 74 µM (≈ 30.7 µg/mL).
